Source: PubChem BioAssay AID1918943 (Molecular Pharmacology Branch, DTP, NCI, 2023)

System: 855422-203-R-J1-PDC complex spheroid viability
Experiment: Anticancer human tumor 855422-203-R-J1-PDC patient-derived bladder carcinoma cell line growth inhibition
Conditions: for IC50: curve of first compound; for viability, T/C: stronger effect = lower value
How it was run: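 Multicellular complex spheroids of tumor cells with human endothelial cells (HUVEC) and mesenchymal stem cells; the LSD1 inhibitor iadademstat was combined with standard-of-care or investigational agents. Top concentration at or near clinical Cmax, half-log dilutions; final DMSO ≤0.25%.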

[1] = second compound 0.1 µM, first compound 0.00949 µM
[2] = second compound 0.1 µM, first compound 0.03 µM
[3] = second compound 0.1 µM, first compound 0.0949 µM
[4] = second compound 0.1 µM, first compound 0.3 µM
[5] = second compound 0.1 µM, first compound 0.949 µM
[6] = second compound 0.1 µM, first compound 3 µM
[7] = second compound 0.316 µM, first compound 0.00949 µM
[8] = second compound 0.316 µM, first compound 0.03 µM
[9] = second compound 0.316 µM, first compound 0.0949 µM
[10] = second compound 0.316 µM, first compound 0.3 µM
[11] = second compound 0.316 µM, first compound 0.949 µM
[12] = second compound 0.316 µM, first compound 3 µM
[13] = second compound 1 µM, first compound 0.00949 µM
[14] = second compound 1 µM, first compound 0.03 µM
[15] = second compound 1 µM, first compound 0.0949 µM
[16] = second compound 1 µM, first compound 0.3 µM
[17] = second compound 1 µM, first compound 0.949 µM
[18] = second compound 1 µM, first compound 3 µM
[19] = second compound 3.16 µM, first compound 0.00949 µM
[20] = second compound 3.16 µM, first compound 0.03 µM
[21] = second compound 3.16 µM, first compound 0.0949 µM
[22] = second compound 3.16 µM, first compound 0.3 µM
[23] = second compound 3.16 µM, first compound 0.949 µM
[24] = second compound 3.16 µM, first compound 3 µM
[25] = second compound 10 µM, first compound 0.00949 µM
[26] = second compound 10 µM, first compound 0.03 µM
[27] = second compound 10 µM, first compound 0.0949 µM
[28] = second compound 10 µM, first compound 0.3 µM
[29] = second compound 10 µM, first compound 0.949 µM
[30] = second compound 10 µM, first compound 3 µM
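Note: drug exposure lasted 7 days starting on day 3 after seeding.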
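Throughout, for viability, T/C: luminescence viability as percent of DMSO vehicle wells = 100%.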

| Compound | IC50 (second compound 0.1 µM) | IC50 (second compound 0.316 µM) | IC50 (second compound 1 µM) | IC50 (second compound 3.16 µM) | IC50 (second compound 10 µM) | viability, T/C [1] | viability, T/C [2] | viability, T/C [3] | viability, T/C [4] | viability, T/C [5] | viability, T/C [6] | viability, T/C [7] | viability, T/C [8] | viability, T/C [9] | viability, T/C [10] | viability, T/C [11] | viability, T/C [12] | viability, T/C [13] | viability, T/C [14] | viability, T/C [15] | other results |
| --- | --- | --- | --- | --- | --- | --- | --- | --- | --- | --- | --- | --- | --- | --- | --- | --- | --- | --- | --- | --- | --- |
| NS(=O)(=O)OCC1CC(n2ccc3c(NC4CCc5ccccc54)ncnc32)CC1O (stereo not given) + NC1CC1c1ccc(-c2cccc(O)c2)cc1 | 802 nM | 848 nM | 1140 nM | 769 nM | 532 nM | 102% | 112% | 115% | 105% | 40.5% | 12.2% | 100% | 113% | 114% | 105% | 44.1% | 13.4% | 108% | 115% | 98.7% | viability, T/C [16]: 102%; viability, T/C [17]: 56.8%; viability, T/C [18]: 13.9%; viability, T/C [19]: 99.7%; viability, T/C [20]: 114%; viability, T/C [21]: 102%; viability, T/C [22]: 105%; viability, T/C [23]: 37.7%; viability, T/C [24]: 14.1%; viability, T/C [25]: 95.4%; viability, T/C [26]: 99.5%; viability, T/C [27]: 93.8%; viability, T/C [28]: 69%; viability, T/C [29]: 30.5%; viability, T/C [30]: 10.9% |
| Nc1ccccc1NC(=O)c1ccc(CNC(=O)OCc2cccnc2)cc1 + NC1CC1c1ccc(-c2cccc(O)c2)cc1 | 1220 nM | 1300 nM | 1070 nM | 993 nM | 1030 nM | 90.3% | 91.2% | 98.5% | 97.8% | 60.8% | 11.8% | 95.3% | 92.6% | 104% | 96.4% | 65.9% | 7.62% | 89.4% | 90.4% | 85.9% | viability, T/C [16]: 82.8%; viability, T/C [17]: 54.7%; viability, T/C [18]: 6.8%; viability, T/C [19]: 87.9%; viability, T/C [20]: 86.6%; viability, T/C [21]: 91%; viability, T/C [22]: 90.2%; viability, T/C [23]: 51.9%; viability, T/C [24]: 5.73%; viability, T/C [25]: 98.7%; viability, T/C [26]: 91.3%; viability, T/C [27]: 91.1%; viability, T/C [28]: 87.4%; viability, T/C [29]: 53.5%; viability, T/C [30]: 2.03% |
| O=C(C=Cc1cccc(S(=O)(=O)Nc2ccccc2)c1)NO + NC1CC1c1ccc(-c2cccc(O)c2)cc1 | 446 nM | 448 nM | 404 nM | 466 nM | 336 nM | 102% | 109% | 106% | 66.2% | 17.4% | 0.43% | 103% | 112% | 122% | 66.4% | 19.4% | 0.31% | 100% | 116% | 114% | viability, T/C [16]: 60.4%; viability, T/C [17]: 18.3%; viability, T/C [18]: 0.29%; viability, T/C [19]: 94.5%; viability, T/C [20]: 105%; viability, T/C [21]: 118%; viability, T/C [22]: 69.8%; viability, T/C [23]: 17.1%; viability, T/C [24]: 0.24%; viability, T/C [25]: 97.6%; viability, T/C [26]: 108%; viability, T/C [27]: 106%; viability, T/C [28]: 54%; viability, T/C [29]: 10.9%; viability, T/C [30]: 0.27% |
